This passage reports GI50 and EC50 results from patent US20070099941A1, “N-arylalkyl-thienopyrimidin-4-amines and analogs as activators of caspases and inducers of apoptosis and the use thereof” (Cytovia, Inc., priority 2005, published 2007).

Format in all cases: cell-based
For assay [1], the system named is human breast cancer cell line MX-1. Briefly: Inhibition of cell proliferation (GI50, CellTiter-Glo) in MX-1 cells. The settings on record: MX1 cells, 48 h, dose for 50% inhibition of cell proliferation. The method, then: (§1) Human breast cancer cell lines T-47D, MX-1 and MDAMB435, human colon cancer cell line HT29, and human lung cancer cell line H1299 were grown and harvested as in Example 26. An aliquot of […] of cells (4.4×10^4 cells/mL) was added to a well of a 96-well microtiter plate containing 5 μL of a 10% DMSO in RPMI-1640 media solution containing 10 nM to 100 μM of N-(3,4-methylenedioxybenzyl)-6-phenylthieno[3,2-d]pyrimidin-4-amine (1 nM to 10 μM final). An aliquot of 45 μL of cells was added to a well of a 96-well microtiter plate containing 5 μL of a 10% DMSO in RPMI-1640 media solution without compound as the control sample for maximal cell proliferation (LMax). The samples were mixed by agitation and then incubated at 37° C. for 48 h in a 5% CO2-95% humidity incubator. After incubation, the samples were removed from the incubator and 25 μL of CellTiter-Glo™ reagent (Promega) was added. The samples were mixed by agitation and incubated at room temperature for 10-15 min. Plates were then read using a luminescent plate reader (Model SPECTRAfluor Plus, Tecan) to give Ltest values.
(§2) Baseline for GI50 (dose for 50% inhibition of cell proliferation) of initial cell numbers was determined by adding an aliquot of 45 μL of cells or 45 μL of media, respectively, to wells of a 96-well microtiter plate containing 5 μL of a 10% DMSO in RPMI-1640 media solution. The samples were mixed by agitation and then incubated at 37° C. for 0.5 h in a 5% CO2-95% humidity incubator. After incubation, the samples were removed from the incubator and 25 μL of CellTiter-Glo™ reagent (Promega) was added. The samples were mixed by agitation and incubated at 37° C. for 10-15 min at room temperature in a 5% CO2-95% humidity incubator. Fluorescence was read as above, (Lstart) defining luminescence for initial cell number used as baseline in GI50 determinations.
(§3) GI50 (dose for 50% inhibition of cell proliferation) is the concentration where [(LTest−Lstart)/(LMax−Lstart)]=0.5.

Assay [2] deals with human breast cancer cell line T-47D. The assay can be described thus: Inhibition of cell proliferation (GI50, CellTiter-Glo) in T-47D cells. The note with it: T47D cells, 48 h, dose for 50% inhibition of cell proliferation. As for the experimental part:
as §1, §2, §3

Assay [3] deals with human breast cancer cell line MDAMB435. Briefly: Inhibition of cell proliferation (GI50, CellTiter-Glo) in MDAMB435 cells. The settings on record: MDA-MB-435, 48 h, dose for 50% inhibition of cell proliferation. The method, then: as §1, §2, §3
(In general: In ATP-based viability assays light output follows the ATP content of the culture.)

The subject of assay [4] is human colon cancer cell line HT29. Briefly: Inhibition of cell proliferation (GI50, CellTiter-Glo) in HT29 cells. The settings on record: HT-29, 48 h, dose for 50% inhibition of cell proliferation. As for the experimental part: as §1, §2, §3
In assay [5] the test system is human breast cancer cell line T-47D. Briefly: Caspase cascade activation assay in T-47D cells. The settings on record: T47D, 24 h or 48 h incubation, read-out: Caspase Activation Potency EC50 T-47D. As for the experimental part:
(§4) Human breast cancer cell lines T-47D and human lung cancer cell line H1299 were grown according to media component mixtures designated by American Type Culture Collection+10% FCS (Invitrogen Corporation), in a 5% CO2-95% humidity incubator at 37° C. T-47D and H1299 cells were maintained at a cell density between 50 and 80% confluency at a cell density of 0.1 to 0.6×10^6 cells/mL. Cells were harvested at 600×g and resuspended at 0.65×10^6 cells/mL into appropriate media+10% FCS. An aliquot of 22.5 μL of cells was added to a well of a 384-well microtiter plate containing 2.5 μL of a 10% DMSO in RPMI-1640 media solution containing 0.16 to 100 μM of N-(3,4-methylenedioxybenzyl)-6-phenylthieno[3,2-d]pyrimidin-4-amine or other test compound (0.016 to 10 μM final). An aliquot of 22.5 μL of cells was added to a well of a 384-well microtiter plate containing 2.5 μL of a 10% DMSO in RPMI-1640 media solution without test compound as the control sample. The samples were mixed by agitation and then incubated at 37° C. for 24 h or 48 h in a 5% CO2-95% humidity incubator. After incubation, the samples were removed from the incubator and 25 μL of a solution containing 14 μM of N-(Ac-DEVD)-N′-ethoxycarbonyl-R110 (SEQ ID No.:1) fluorogenic substrate (Cytovia, Inc.; WO99/18856), 20% sucrose (Sigma), 20 mM DTT (Sigma), 200 mM NaCl (Sigma), 40 mM Na PIPES buffer pH 7.2 (Sigma), and 500 μg/mL lysolecithin (Calbiochem) was added. The samples were mixed by agitation and incubated at room temperature. Using a fluorescent plate reader (Model SPECTRAfluor Plus, Tecan), an initial reading (T=0) was made approximately 1-2 min after addition of the substrate solution, employing excitation at 485 nm and emission at 530 nm, to determine the background fluorescence of the control sample. After the 3 h incubation, the samples were read for fluorescence as above (T=3 h).
(§5) The Relative Florescence Unit values (RFU) were used to calculate the sample readings as follows: RFU(T=3h)−Control RFU(T=0)=Net RFU(T=3h)
(§6) The activity of caspase cascade activation was determined by the ratio of the net RFU value for N-(3,4-methylenedioxybenzyl)-6-phenylthieno[3,2-d]pyrimidin-4-amine (Example A) or other test compound to that of control samples. The EC50 (nM) was determined by a sigmoidal dose-response calculation (Prism 3.0, GraphPad Software Inc.).

The subject of assay [6] is human lung cancer cell line H1299. Briefly: Caspase cascade activation assay in H1299 cells. The note with it: NCI-H1299, 24 h or 48 h incubation, read-out: Caspase Activation Potency EC50 H1299. As for the experimental part: as §4, §5, §6
Assay [7] shares this test system. The assay can be described thus: Inhibition of cell proliferation (GI50, CellTiter-Glo) in H1299 cells. The note with it: NCI-H1299, 48 h, dose for 50% inhibition of cell proliferation. As for the experimental part:
as §1, §2, §3

In assay [8] the test system is human hepatocellular carcinoma cell line SNU398. The assay can be described thus: Caspase cascade activation assay in SNU398 cells. The note with it: SNU-398, 48 h assay, read-out: Caspase Activation Potency EC50 SNU398.
For assay [9], the system named is human B cell lymphoblastoid cell line Ramos. Briefly: Caspase cascade activation assay in Ramos cells. The settings on record: 48 h assay, read-out: Caspase Activation Potency EC50 Ramos.
Assay [10] concerns human colon carcinoma cell line HCT116. Briefly: Caspase cascade activation assay in HCT116 cells. The settings on record: HCT-116, 48 h assay, read-out: Caspase Activation Potency EC50 HCT116.
In assay [11] the test system is human lymphoma cell line Raji. The assay can be described thus: Caspase cascade activation assay in Raji cells. The note with it: 48 h assay, read-out: Caspase Activation Potency EC50 Raji.
The test system of assay [12] is human Burkitt's lymphoma cell line Namalwa. Briefly: Caspase cascade activation assay in Namalwa cells. The settings on record: Burkitts lymphoma cell, 48 h assay, read-out: Caspase Activation Potency EC50 Namalwa.

As to `Ic1cc2ncnc(NCc3ccc4c(c3)OCO4)c2s1` [Example 3, N-(3,4-Methylenedioxybenzyl)-6-iodo-thieno[3,2-d]pyrimidin-4-amine], the GI50 worked out at 2500 nM in assay [1]; 2070 nM in assay [2]; 997 nM in assay [3]; 2500 nM in assay [4]; 1040 nM in assay [7]. Further, the values for the EC50 in assay [5] and in assay [6] were 1560 nM and 5090 nM, respectively.

With `c1ccc(-c2cc3ncnc(NCc4ccc5c(c4)OCO5)c3s2)cc1` [Example A, N-(3,4-methylenedioxybenzyl)-6-phenylthieno[3,2-d]pyrimidin-4-amine], the GI50 was found to be 600 nM in assay [1]; 600 nM in [2]; 129 nM in assay [3]; 600 nM in [4]; 600 nM in assay [7]. In addition, the EC50 was 738 nM in [8]; 624 nM in assay [9]; 737 nM in assay [10]; 903 nM in [5]; 506 nM in assay [6]; 1130 nM in assay [11]. For the same compound, the EC50 in [12] was determined as 633 nM.

Take `c1cncc(-c2cc3ncnc(NCc4ccc5c(c4)OCO5)c3s2)c1` [Example 5, N-(3,4-Methylenedioxybenzyl)-6-(pyridin-3-yl)thieno[3,2-d]pyrimidin-4-amine]: the GI50 in assay [1] stood at 173 nM; in [2], 1290 nM; in assay [3] it was 155 nM; in assay [4] it was 5240 nM; in assay [7], 1810 nM. Besides, the EC50 is 1450 nM in [8]; 1830 nM in [9]; 2530 nM in assay [10]; 563 nM in [5]; 1600 nM in [6]; 2760 nM in assay [11]. In assay [12], the EC50 stood at 1350 nM.

The term GI50 denotes the concentration at which growth is held to half of that of the control. As usually defined, the EC50 is the midpoint of the concentration-response curve.
